Assays:
Format in all cases: in vivo
[1] = tested on: barnyardgrass (Echinochloa crus-galli); assay: Test A pre-/postemergence plant response; settings: for Barnyardgrass plant response rating: visual injury, 0 to 100 scale (0 no effect, 100 complete control), approx. ten days
Source text: (§1) Seeds of barnyardgrass (Echinochloa crus-galli), large crabgrass (Digitaria sanguinalis), giant foxtail (Setaria faberii), morningglory (Ipomoea spp.), pigweed (Amaranthus retroflexus), velvetleaf (Abutilon theophrasti), wheat (Triticum aestivum) and corn (Zea mays) were planted into a blend of loam soil and sand and treated preemergence with a directed soil spray using test chemicals formulated in a non-phytotoxic solvent mixture which included a surfactant. At the same time these species were also treated with postemergence applications of test compounds formulated in the same manner.
(§2) Plants ranged in height from two to ten cm and were in the one- to two-leaf stage for the postemergence treatment. Treated plants and untreated controls were maintained in a greenhouse for approximately ten days, after which time all treated plants were compared to untreated controls and visually evaluated for injury. Plant response ratings, summarized in Table A, are based on a 0 to 100 scale where 0 is no effect and 100 is complete control. A dash (-) response means no test result.

[2] = tested on: corn (Zea mays); assay: Test A pre-/postemergence plant response; settings: for Corn plant response rating: visual injury, 0 to 100 scale (0 no effect, 100 complete control), approx. ten days
Source text: as §1, §2

[3] = tested on: giant foxtail (Setaria faberii); assay: Test A pre-/postemergence plant response; settings: for Foxtail, Giant plant response rating: visual injury, 0 to 100 scale (0 no effect, 100 complete control), approx. ten days
Source text: as §1, §2

[4] = tested on: large crabgrass (Digitaria sanguinalis); assay: Test A pre-/postemergence plant response; settings: for Crabgrass, Large plant response rating: visual injury, 0 to 100 scale (0 no effect, 100 complete control), approx. ten days
Source text: as §1, §2

[5] = tested on: morningglory (Ipomoea spp.); assay: Test A pre-/postemergence plant response; settings: for Morningglory plant response rating: visual injury, 0 to 100 scale (0 no effect, 100 complete control), approx. ten days
Source text: as §1, §2

[6] = tested on: pigweed (Amaranthus retroflexus); assay: Test A pre-/postemergence plant response; settings: for Pigweed plant response rating: visual injury, 0 to 100 scale (0 no effect, 100 complete control), approx. ten days
Source text: as §1, §2

[7] = tested on: velvetleaf (Abutilon theophrasti); assay: Test A pre-/postemergence plant response; settings: for Velvetleaf plant response rating: visual injury, 0 to 100 scale (0 no effect, 100 complete control), approx. ten days
Source text: as §1, §2

[8] = tested on: wheat (Triticum aestivum); assay: Test A pre-/postemergence plant response; settings: for Wheat plant response rating: visual injury, 0 to 100 scale (0 no effect, 100 complete control), approx. ten days
Source text: as §1, §2

[9] = tested on: barnyardgrass (Echinochloa crus-galli); assay: Test B flooded paddy test; settings: for Plant response rating, Flood, Barnyardgrass: 250 g ai/ha, flooded paddy test, visual rating on 0 to 100 scale (0 no effect, 100 complete control) after 13 to 15 days; for Plant response rating, Barnyardgrass: Flood (flooded paddy test), 13 to 15 days
Method in brief: (§3)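 Each compound is added to standing floodwater (3 cm above soil, maintained) in pots of 2-leaf-stage plants; greenhouse exposure lasts 13–15 d before visual comparison with controls on a 0–100 control scale.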

[10] = tested on: ducksalad (Heteranthera limosa); assay: Test B flooded paddy test; settings: for Plant response rating, Flood, Ducksalad: 250 g ai/ha, flooded paddy test, visual rating on 0 to 100 scale (0 no effect, 100 complete control) after 13 to 15 days; for Plant response rating, Ducksalad: Flood (flooded paddy test), 13 to 15 days
Method in brief: as §3

[11] = tested on: rice (Oryza sativa); assay: Test B flooded paddy test; settings: for Plant response rating, Flood, Rice: 250 g ai/ha, flooded paddy test, visual rating on 0 to 100 scale (0 no effect, 100 complete control) after 13 to 15 days; for Plant response rating, Rice: Flood (flooded paddy test), 13 to 15 days
Method in brief: as §3

[12] = tested on: umbrella sedge (Cyperus difformis); assay: Test B flooded paddy test; settings: for Plant response rating, Flood, Sedge, Umbrella: 250 g ai/ha, flooded paddy test, visual rating on 0 to 100 scale (0 no effect, 100 complete control) after 13 to 15 days; for Plant response rating, Sedge, Umbrella: Flood (flooded paddy test), 13 to 15 days
Method in brief: as §3

[13] = Postemergence, 125 g ai/ha, 0 to 100 scale where 0 is no effect and 100 is complete control
[14] = Preemergence, 125 g ai/ha, 0 to 100 scale, 0 = no effect, 100 = complete control
[15] = Preemergence, 500 g ai/ha, 0 to 100 scale, 0 = no effect, 100 = complete control
[16] = 62 g ai/ha, scale of 0 to 100 where 0 is no effect and 100 is complete control
[17] = 125 g ai/ha, scale 0 to 100, 0 is no effect, 100 is complete control
[18] = Flood, 31 g ai/ha, scale 0 to 100 (0 no effect, 100 complete control)

With COc1cccc(-c2ncc(C(=O)C3=C(O)CCCC3=O)c(=O)n2C2CCCCC2)c1 [Compound 196] as the compound, how does the “Plant response rating, Barnyardgrass” value [1, 13] read?
Its value is 80.

And the “Barnyardgrass plant response rating” value ([1]; Postemergence, 500 g ai/ha)?
Its value is 90.

And the “Plant response rating, Barnyardgrass” value [1, 14]?
Its value is 0.

And the “Plant response rating, Barnyardgrass” value [1, 15]?
Its value is 50.

And the “Plant response rating, Corn” value [2, 13]?
Its value is 10.

And the “Corn plant response rating” value ([2]; Postemergence, 500 g ai/ha)?
Its value is 40.

And the “Plant response rating, Corn” value [2, 14]?
Its value is 0.

And the “Plant response rating, Corn” value [2, 15]?
The value was 20.

And the “Plant response rating, Foxtail, Giant” value [3, 13]?
Its value is 70.

What about the “Foxtail, Giant plant response rating” value ([3]; Postemergence, 500 g ai/ha) of the same compound?
Its value is 100.

And the “Plant response rating, Foxtail, Giant” value [3, 14]?
The value was 0.

What about the “Plant response rating, Foxtail, Giant” value [3, 15] of the same compound?
The value was 80.

And the “Plant response rating, Crabgrass, Large” value [4, 13]?
Its value is 50.

What about the “Crabgrass, Large plant response rating” value ([4]; Postemergence, 500 g ai/ha) of the same compound?
Its value is 90.

What about the “Plant response rating, Crabgrass, Large” value [4, 14] of the same compound?
The value was 0.

And the “Plant response rating, Crabgrass, Large” value [4, 15]?
Its value is 70.

What about the “Plant response rating, Morningglory” value [5, 13] of the same compound?
Its value is 100.

What about the “Morningglory plant response rating” value ([5]; Postemergence, 500 g ai/ha) of the same compound?
The value was 100.

What about the “Plant response rating, Morningglory” value [5, 14] of the same compound?
The value was 0.

What about the “Plant response rating, Morningglory” value [5, 15] of the same compound?
The value was 40.

And the “Plant response rating, Pigweed” value [6, 13]?
Its value is 80.

And the “Pigweed plant response rating” value ([6]; Postemergence, 500 g ai/ha)?
The value was 100.

What about the “Plant response rating, Pigweed” value [6, 14] of the same compound?
Its value is 0.

And the “Plant response rating, Pigweed” value [6, 15]?
The value was 30.

What about the “Plant response rating, Velvetleaf” value [7, 13] of the same compound?
The value was 100.

And the “Velvetleaf plant response rating” value ([7]; Postemergence, 500 g ai/ha)?
Its value is 100.

And the “Plant response rating, Velvetleaf” value [7, 14]?
Its value is 0.

And the “Plant response rating, Velvetleaf” value [7, 15]?
The value was 50.

And the “Plant response rating, Wheat” value [8, 13]?
Its value is 0.

What about the “Wheat plant response rating” value ([8]; Postemergence, 500 g ai/ha) of the same compound?
The value was 30.

And the “Plant response rating, Wheat” value [8, 14]?
Its value is 0.

And the “Plant response rating, Wheat” value [8, 15]?
The value was 20.

And the “Plant response rating, Flood, Barnyardgrass” value [9]?
Its value is 30.

And the “Plant response rating, Barnyardgrass” value [9, 16]?
The value was 0.

And the “Plant response rating, Barnyardgrass” value [9, 17]?
The value was 20.

What about the “Barnyardgrass plant response rating” value [9, 18] of the same compound?
Its value is 0.

What about the “Plant response rating, Flood, Ducksalad” value [10] of the same compound?
The value was 95.

And the “Plant response rating, Ducksalad” value [10, 16]?
The value was 60.

What about the “Plant response rating, Ducksalad” value [10, 17] of the same compound?
Its value is 95.

And the “Ducksalad plant response rating” value [10, 18]?
The value was 40.

What about the “Plant response rating, Flood, Rice” value [11] of the same compound?
Its value is 65.

What about the “Plant response rating, Rice” value [11, 16] of the same compound?
Its value is 0.

What about the “Plant response rating, Rice” value [11, 17] of the same compound?
Its value is 40.

And the “Rice plant response rating” value [11, 18]?
Its value is 0.

What about the “Plant response rating, Flood, Sedge, Umbrella” value [12] of the same compound?
The value was 80.

And the “Plant response rating, Sedge, Umbrella” value [12, 16]?
The value was 30.

And the “Plant response rating, Sedge, Umbrella” value [12, 17]?
Its value is 75.

And the “Sedge, Umbrella plant response rating” value [12, 18]?
The value was 20.

What does the source list for CCCCn1c(-c2cccc(C)c2)ncc(C(=O)C2=C(O)C3CCC(C3)C2=O)c1=O (stereo not shown) [Compound 232]?
Plant response rating, Barnyardgrass [1, 13]: 60; Barnyardgrass plant response rating ([1]; Postemergence, 500 g ai/ha): 90; Plant response rating, Barnyardgrass [1, 14]: 0; Plant response rating, Barnyardgrass [1, 15]: 50; Plant response rating, Corn [2, 13]: 10; Corn plant response rating ([2]; Postemergence, 500 g ai/ha): 60; Plant response rating, Corn [2, 14]: 0; Plant response rating, Corn [2, 15]: 0; Plant response rating, Foxtail, Giant [3, 13]: 60; Foxtail, Giant plant response rating ([3]; Postemergence, 500 g ai/ha): 90; Plant response rating, Foxtail, Giant [3, 14]: 0; Plant response rating, Foxtail, Giant [3, 15]: 70; Plant response rating, Crabgrass, Large [4, 13]: 20; Crabgrass, Large plant response rating ([4]; Postemergence, 500 g ai/ha): 60; Plant response rating, Crabgrass, Large [4, 14]: 10; Plant response rating, Crabgrass, Large [4, 15]: 40; Plant response rating, Morningglory [5, 13]: 100; Morningglory plant response rating ([5]; Postemergence, 500 g ai/ha): 100; Plant response rating, Morningglory [5, 14]: 0; Plant response rating, Morningglory [5, 15]: 40; Plant response rating, Pigweed [6, 13]: 70; Pigweed plant response rating ([6]; Postemergence, 500 g ai/ha): 90; Plant response rating, Pigweed [6, 14]: 0; Plant response rating, Pigweed [6, 15]: 90; Plant response rating, Velvetleaf [7, 13]: 70; Velvetleaf plant response rating ([7]; Postemergence, 500 g ai/ha): 80; Plant response rating, Velvetleaf [7, 14]: 0; Plant response rating, Velvetleaf [7, 15]: 60; Plant response rating, Wheat [8, 13]: 20; Wheat plant response rating ([8]; Postemergence, 500 g ai/ha): 50; Plant response rating, Wheat [8, 14]: 0; Plant response rating, Wheat [8, 15]: 30; Plant response rating, Flood, Barnyardgrass [9]: 50; Plant response rating, Barnyardgrass [9, 16]: 30; Plant response rating, Flood, Ducksalad [10]: 85; Plant response rating, Ducksalad [10, 16]: 85; Plant response rating, Flood, Rice [11]: 0; Plant response rating, Rice [11, 16]: 0; Plant response rating, Flood, Sedge, Umbrella [12]: 80; Plant response rating, Sedge, Umbrella [12, 16]: 80

Source: patent publication US8952024B2, “Herbicidal pyrimidone derivatives” (E I du Pont de Nemours and Company, priority 2009, dated 2015)
